Source: the NIST ThermoML archive (doi:10.1021/acs.jced.8b00387)

Assay: xn = mol fraction of the nth substance listed
Conditions: for viscosity / mass density / speed of sound: 102 kPa, Liquid; for viscosity: Concentric cylinders viscometry; for mass density: Vibrating tube method; for speed of sound: Frequency=3 MHz, Single path-length method; for surface tension liquid-gas: 295 K, Pendant drop shape

CC(CC(C)(C)C)CC(C)(C)CC(C)(C)C (stereo not given) [2,2,4,4,6,8,8-heptamethylnonane] + CCCCCCc1ccccc1
Conditions	mass density [kg/m3]	speed of sound [m/s]	viscosity [mPa·s]
253.15 K, x2 = 0.1015	816.6	–	11.82
253.15 K, x2 = 0.2005	822.2	–	10.18
253.15 K, x2 = 0.2999	828	–	9.04
253.15 K, x2 = 0.4001	834.5	–	7.96
253.15 K, x2 = 0.4996	841.5	–	7.08
253.15 K, x2 = 0.6	849.4	–	6.37
253.15 K, x2 = 0.6999	857.7	–	5.78
253.15 K, x2 = 0.8	867.1	–	5.3
253.15 K, x2 = 0.9	877.1	–	4.94
288.15 K, x2 = 0.1015	792.77	1311.3	–
288.15 K, x2 = 0.2005	798.05	1317.6	–
288.15 K, x2 = 0.2999	803.73	1324.6	–
288.15 K, x2 = 0.4001	810.02	1332	–
288.15 K, x2 = 0.4996	816.74	1340.4	–
288.15 K, x2 = 0.6	824.16	1349.4	–
288.15 K, x2 = 0.6999	832.36	1359.3	–
288.15 K, x2 = 0.8	841.37	1370	–
288.15 K, x2 = 0.9	851.27	1382.2	–
293.15 K, x2 = 0.1015	789.39	1292.1	3.37
293.15 K, x2 = 0.2005	794.63	1298.5	3.04
293.15 K, x2 = 0.2999	800.29	1305.4	2.75
293.15 K, x2 = 0.4001	806.56	1313	2.51
293.15 K, x2 = 0.4996	813.23	1321.1	2.3
293.15 K, x2 = 0.6	820.65	1330.2	2.12
293.15 K, x2 = 0.6999	828.75	1340.1	1.98
293.15 K, x2 = 0.8	837.7	1350.9	1.85
293.15 K, x2 = 0.9	847.55	1363	1.74
303.15 K, x2 = 0.1015	782.63	1254.4	2.68
303.15 K, x2 = 0.2005	787.8	1261.2	2.44
303.15 K, x2 = 0.2999	793.41	1267.7	2.23
303.15 K, x2 = 0.4001	799.59	1275.6	2.05
303.15 K, x2 = 0.4996	806.19	1283.4	1.89
303.15 K, x2 = 0.6	813.53	1292.4	1.78
303.15 K, x2 = 0.6999	821.53	1302.3	1.66
303.15 K, x2 = 0.8	830.36	1313.5	1.56
303.15 K, x2 = 0.9	840.1	1325.2	1.48
313.15 K, x2 = 0.1015	775.87	1217.8	2.19
313.15 K, x2 = 0.2005	780.97	1224.6	2
313.15 K, x2 = 0.2999	786.51	1231	1.84
313.15 K, x2 = 0.4001	792.62	1238.9	1.7
313.15 K, x2 = 0.4996	799.14	1246.6	1.58
313.15 K, x2 = 0.6	806.39	1255.5	1.49
313.15 K, x2 = 0.6999	814.29	1265.4	1.4
313.15 K, x2 = 0.8	823.01	1276.7	1.32
313.15 K, x2 = 0.9	832.64	1288.3	1.25
323.15 K, x2 = 0.1015	769.09	1181.9	1.82
323.15 K, x2 = 0.2005	774.12	1188.7	1.67
323.15 K, x2 = 0.2999	779.61	1195.1	1.55
323.15 K, x2 = 0.4001	785.63	1203	1.44
323.15 K, x2 = 0.4996	792.08	1210.5	1.37
323.15 K, x2 = 0.6	799.24	1219.5	1.28
323.15 K, x2 = 0.6999	807.04	1229.4	1.2
323.15 K, x2 = 0.8	815.65	1240.5	1.14
323.15 K, x2 = 0.9	825.16	1252	1.09
333.15 K, x2 = 0.1015	762.29	1147.1	1.53
333.15 K, x2 = 0.2005	767.25	1153.6	1.42
333.15 K, x2 = 0.2999	772.68	1160.3	1.32
333.15 K, x2 = 0.4001	778.62	1167.9	1.23
333.15 K, x2 = 0.4996	784.99	1175.5	1.18
333.15 K, x2 = 0.6	792.06	1184.4	1.11
333.15 K, x2 = 0.6999	799.77	1194.3	1.04
333.15 K, x2 = 0.8	808.26	1205.1	0.99
333.15 K, x2 = 0.9	817.65	1216.8	0.945

Conditions	surface tension liquid-gas [mN/m]
x2 = 0.1015	24.4
x2 = 0.2005	24.5
x2 = 0.2999	24.7
x2 = 0.4001	25.3
x2 = 0.4996	25.6
x2 = 0.6	25.8
x2 = 0.6999	26.5
x2 = 0.8	27.2
x2 = 0.9	27.9

CC(CC(C)(C)C)CC(C)(C)CC(C)(C)C (stereo not given) [2,2,4,4,6,8,8-heptamethylnonane] + CCCCc1ccccc1
Conditions	mass density [kg/m3]	speed of sound [m/s]	viscosity [mPa·s]
253.15 K, x2 = 0.1007	815.9	–	11.06
253.15 K, x2 = 0.2007	820.7	–	8.94
253.15 K, x2 = 0.3	826.1	–	7.29
253.15 K, x2 = 0.3999	832.1	–	5.97
253.15 K, x2 = 0.4998	838.8	–	4.93
253.15 K, x2 = 0.5997	846.5	–	4.12
253.15 K, x2 = 0.7001	855.7	–	3.46
253.15 K, x2 = 0.7998	865.8	–	2.96
253.15 K, x2 = 0.8992	878.5	–	2.59
288.15 K, x2 = 0.1007	791.93	1308.2	–
288.15 K, x2 = 0.2007	796.54	1311.6	–
288.15 K, x2 = 0.3	801.59	1315.6	–
288.15 K, x2 = 0.3999	807.31	1320.4	–
288.15 K, x2 = 0.4998	813.73	1325.5	–
288.15 K, x2 = 0.5997	820.89	1331.9	–
288.15 K, x2 = 0.7001	829.45	1339.5	–
288.15 K, x2 = 0.7998	839.17	1348.9	–
288.15 K, x2 = 0.8992	850.51	1359.8	–
293.15 K, x2 = 0.1007	788.54	1289.3	3.22
293.15 K, x2 = 0.2007	793.11	1292.7	2.77
293.15 K, x2 = 0.3	798.11	1296.6	2.41
293.15 K, x2 = 0.3999	803.78	1301.1	2.09
293.15 K, x2 = 0.4998	810.17	1306.3	1.83
293.15 K, x2 = 0.5997	817.24	1312.5	1.6
293.15 K, x2 = 0.7001	825.74	1320.1	1.41
293.15 K, x2 = 0.7998	835.37	1329.1	1.29
293.15 K, x2 = 0.8992	846.62	1340	1.15
303.15 K, x2 = 0.1007	781.75	1251.9	2.58
303.15 K, x2 = 0.2007	786.24	1255.2	2.25
303.15 K, x2 = 0.3	791.16	1258.9	1.97
303.15 K, x2 = 0.3999	796.72	1263.3	1.73
303.15 K, x2 = 0.4998	803	1268.3	1.55
303.15 K, x2 = 0.5997	809.95	1274.4	1.37
303.15 K, x2 = 0.7001	818.29	1281.9	1.21
303.15 K, x2 = 0.7998	827.77	1290.3	1.1
303.15 K, x2 = 0.8992	838.82	1300.9	0.993
313.15 K, x2 = 0.1007	774.96	1215.2	2.11
313.15 K, x2 = 0.2007	779.36	1218.4	1.86
313.15 K, x2 = 0.3	784.19	1222	1.64
313.15 K, x2 = 0.3999	789.65	1226.2	1.46
313.15 K, x2 = 0.4998	795.81	1231.1	1.3
313.15 K, x2 = 0.5997	802.64	1237	1.16
313.15 K, x2 = 0.7001	810.83	1244.2	1.03
313.15 K, x2 = 0.7998	820.15	1252.3	0.957
313.15 K, x2 = 0.8992	831.01	1262.7	0.855
323.15 K, x2 = 0.1007	768.15	1179.3	1.76
323.15 K, x2 = 0.2007	772.47	1182.3	1.56
323.15 K, x2 = 0.3	777.21	1185.8	1.39
323.15 K, x2 = 0.3999	782.56	1189.8	1.27
323.15 K, x2 = 0.4998	788.61	1194.5	1.14
323.15 K, x2 = 0.5997	795.31	1200.2	1.03
323.15 K, x2 = 0.7001	803.34	1207.2	0.92
323.15 K, x2 = 0.7998	812.49	1215.1	0.831
323.15 K, x2 = 0.8992	823.15	1225.2	0.754
333.15 K, x2 = 0.1007	761.33	1144.1	1.49
333.15 K, x2 = 0.2007	765.57	1147	1.33
333.15 K, x2 = 0.3	770.2	1150.3	1.2
333.15 K, x2 = 0.3999	775.45	1154.1	1.1
333.15 K, x2 = 0.4998	781.38	1158.8	1
333.15 K, x2 = 0.5997	787.95	1164.2	0.9
333.15 K, x2 = 0.7001	795.82	1170.9	0.812
333.15 K, x2 = 0.7998	804.8	1178.9	0.736
333.15 K, x2 = 0.8992	815.26	1188.7	0.67

Conditions	surface tension liquid-gas [mN/m]
x2 = 0.1007	24.3
x2 = 0.2007	24.6
x2 = 0.3	24.8
x2 = 0.3999	25.1
x2 = 0.4998	25.5
x2 = 0.5997	26
x2 = 0.7001	26.2
x2 = 0.7998	26.7
x2 = 0.8992	27.3
